Values after ≈ are worked out from the molar mass of the structure shown. Where two headings read alike, the source gives them in different places.
Columns and labels:
Test in all cases: in vitro antibacterial MIC, agar plate dilution
Type in all cases: cell-based
[1] = system: Enterobacter cloacae VGH 84-39; conditions: Enterobacter cloacae, VGH8439, 18 h, 35° C., read-out: MIC
Procedure, shortened: (§1)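 Agar plate dilution on Mueller-Hinton agar, inoculum approximately 10^4 CFU per organism applied with a Steers replicator. MIC (mcg/ml) is the lowest compound concentration inhibiting visible growth after 18 hours at 35° C.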

[2] = system: Pseudomonas aeruginosa VGH 84-4; conditions: Pseudomonas aeruginosa, VGH844, 18 h, 35° C., read-out: MIC
Procedure, shortened: as §1

[3] = system: Staphylococcus aureus CMC 83-131; conditions: Staphylococcus aureus, CMC83131, 18 h, 35° C., read-out: MIC
Procedure, shortened: as §1

[4] = system: Morganella morganii CMC 84-37; conditions: 35° C.
Procedure, shortened: as §1

[5] = system: Morganella morganii VHG 84-12; conditions: Morganella morganii, VHG8412, 18 h, Morganella morganii VHG 84-12 (VGH 84-12 for Example 131), 35° C., read-out: MIC
Procedure, shortened: as §1

[6] = system: Staphylococcus aureus VGH 84-47; conditions: 35° C.
Procedure, shortened: as §1

[7] = system: Staphylococcus aureus VGH 84-45; conditions: Staphylococcus aureus, VGH8445, 18 h, 35° C., read-out: MIC
Procedure, shortened: as §1

[8] = system: Proteus rettgeri CMC 84-41; conditions: Providencia rettgeri, CMC8441, 18 h, 35° C., read-out: MIC
Procedure, shortened: as §1

[9] = system: Klebsiella pneumoniae CMC 84-31; conditions: Klebsiella pneumoniae, CMC8431, 18 h, 35° C., read-out: MIC
Procedure, shortened: as §1

[10] = system: Streptococcus faecalis VGH 84-69; conditions: Enterococcus faecalis, VGH8469, 18 h, 35° C., read-out: MIC
Procedure, shortened: as §1

[11] = system: Serratia marcescens CMC 83-74; conditions: Serratia marcescens, CMC8374, 18 h, 35° C., read-out: MIC
Procedure, shortened: as §1

[12] = system: Streptococcus faecalis CMC 83-120; conditions: Enterococcus faecalis, CMC83120, 18 h, 35° C., read-out: MIC
Procedure, shortened: as §1

Escherichia coli LL 311 = conditions: Escherichia coli, LL311, 18 h, 35° C., read-out: MIC
Procedure, shortened: as §1

[13] = system: Serratia marcescens VGH 84-30; conditions: Serratia marcescens, VGH8430, 18 h, 35° C., read-out: MIC
Procedure, shortened: as §1

[14] = system: Pseudomonas aeruginosa LL-1244; conditions: Pseudomonas aeruginosa, LL1244, 18 h, 35° C., read-out: MIC
Procedure, shortened: as §1

[15] = system: Escherichia coli CMC 84-11; conditions: Escherichia coli, CMC8411, 18 h, 35° C., read-out: MIC
Procedure, shortened: as §1

Citrobacter div. K 82-24 = conditions: Citrobacter, DIV.K8224, 18 h, 35° C., read-out: MIC
Procedure, shortened: as §1

[16] = system: Pseudomonas aeruginosa K 84-16; conditions: Pseudomonas aeruginosa, K8416, 18 h, 35° C., read-out: MIC
Procedure, shortened: as §1

[17] = system: Staphylococcus aureus K 82-26; conditions: Staphylococcus aureus, K8226, 18 h, 35° C., read-out: MIC
Procedure, shortened: as §1

[18] = system: Escherichia coli VGH 84-19; conditions: 35° C.
Procedure, shortened: as §1

[19] = system: Proteus rettgeri IO 83-21; conditions: Providencia rettgeri, IO8321, 18 h, 35° C., read-out: MIC
Procedure, shortened: as §1

[20] = system: Serratia marcescens MOR 84-41; conditions: Serratia marcescens, MOR8441, 18 h, 35° C., read-out: MIC
Procedure, shortened: as §1

[21] = system: Streptococcus faecalis UCI 85-19; conditions: Enterococcus faecalis, UCI8519, 18 h, 35° C., read-out: MIC
Procedure, shortened: as §1

[22] = system: Escherichia coli ATCC 25922; conditions: 35° C.
Procedure, shortened: as §1

[23] = system: Klebsiella pneumoniae MOR 84-24; conditions: Klebsiella pneumoniae, MOR8424, 18 h, 35° C., read-out: MIC
Procedure, shortened: as §1

[24] = system: Serratia marcescens K 84-18; conditions: Serratia marcescens, K8418, 18 h, 35° C., read-out: MIC
Procedure, shortened: as §1

[25] = system: Enterobacter cloacae MOR 84-30; conditions: Enterobacter cloacae, MOR8430, 18 h, 35° C., read-out: MIC
Procedure, shortened: as §1

[26] = system: Pseudomonas aeruginosa CMC 83-20; conditions: Pseudomonas aeruginosa, CMC8320, 18 h, 35° C., read-out: MIC
Procedure, shortened: as §1

[27] = system: Providencia stuarti CMC 83-3; conditions: Providencia, CMC833, 18 h, 35° C., read-out: MIC
Procedure, shortened: as §1

[28] = system: Streptococcus faecalis UCI 85-30; conditions: Enterococcus faecalis, UCI8530, 18 h, 35° C., read-out: MIC
Procedure, shortened: as §1

[29] = system: Morganella morganii CMC 84-38; conditions: Morganella morganii, CMC8438, 18 h, 35° C., read-out: MIC
Procedure, shortened: as §1

[30] = system: Klebsiella pneumoniae IO 83-5; conditions: Klebsiella pneumoniae, IO835, 18 h, 35° C., read-out: MIC
Procedure, shortened: as §1

[31] = system: Enterobacter cloacae K 84-10; conditions: Enterobacter cloacae, K8410, 18 h, 35° C., read-out: MIC
Procedure, shortened: as §1

[32] = system: Staphylococcus aureus Smith; conditions: Staphylococcus aureus, 18 h, 35° C., read-out: MIC
Procedure, shortened: as §1

[33] = system: Escherichia coli MOR 84-20; conditions: 35° C.
Procedure, shortened: as §1

[34] = system: Escherichia coli CMC 84-50; conditions: Escherichia coli, CMC8450, 18 h, 35° C., read-out: MIC
Procedure, shortened: as §1

[35] = system: Morganella morganii MOR 84-45; conditions: Morganella morganii, MOR8445, 18 h, 35° C., read-out: MIC
Procedure, shortened: as §1

[36] = system: Pseudomonas aeruginosa VGH 84-3; conditions: Pseudomonas aeruginosa, VGH843, 18 h, 35° C., read-out: MIC
Procedure, shortened: as §1

[37] = system: Streptococcus faecalis VGH 84-65; conditions: Enterococcus faecalis, VGH8465, 18 h, 35° C., read-out: MIC
Procedure, shortened: as §1

For O=C(O)c1cn(C2CC2)c2cc(N3CCNC(c4ccccn4)C3)c(F)cc2c1=O (stereo not drawn) [Example 128, 1-Cyclopropyl-6-fluoro-1.4-dihydro-4-oxo-7-[3-(2-pyridinyl) -1-piperazinyl]-3-quinolinecarboxylic acid], the MIC [1] was 0.5 µg/mL (≈ 1.22 µM), the MIC [2] was 8 µg/mL (≈ 19.6 µM) and the MIC [3] was 0.5 µg/mL (≈ 1.22 µM). The MIC ([4]; 18 hours) was 0.25 µg/mL (≈ 0.612 µM), the MIC [5] was 1 µg/mL (≈ 2.45 µM) and the MIC ([6]; 18 hours) was 0.25 µg/mL (≈ 0.612 µM). It also gave an MIC [7] of 0.06 µg/mL (≈ 0.147 µM), an MIC [8] of 0.12 µg/mL (≈ 0.294 µM) and an MIC [9] of 0.5 µg/mL (≈ 1.22 µM). For the same compound, the MIC [10] was 4 µg/mL (≈ 9.79 µM), the MIC [11] was greater than 16 µg/mL and the MIC [12] was 4 µg/mL (≈ 9.79 µM). The MIC (Escherichia coli LL 311) was 0.06 µg/mL (≈ 0.147 µM), the MIC [13] was 8 µg/mL (≈ 19.6 µM) and the MIC [14] was 8 µg/mL (≈ 19.6 µM). For the same compound, the MIC [15] was 0.06 µg/mL (≈ 0.147 µM), the MIC (Citrobacter div. K 82-24) was 0.25 µg/mL (≈ 0.612 µM) and the MIC [16] was 16 µg/mL (≈ 39.2 µM). It also gave an MIC [17] of 4 µg/mL (≈ 9.79 µM), an MIC ([18]; 18 hours) of 0.25 µg/mL (≈ 0.612 µM) and an MIC [19] of 1 µg/mL (≈ 2.45 µM). The MIC [20] was 1 µg/mL (≈ 2.45 µM), the MIC [21] was 2 µg/mL (≈ 4.9 µM) and the MIC ([22]; 18 hours) was 0.06 µg/mL (≈ 0.147 µM). It also gave an MIC ([22]; Escherichia coli, ATCC25922, 18 h, read-out: MIC) of 0.03 µg/mL (≈ 0.0735 µM), an MIC [23] of 1 µg/mL (≈ 2.45 µM) and an MIC [24] of 0.5 µg/mL (≈ 1.22 µM). For the same compound, the MIC [25] was 1 µg/mL (≈ 2.45 µM), the MIC [26] was 16 µg/mL (≈ 39.2 µM) and the MIC [27] was greater than 16 µg/mL. It also gave an MIC [28] of 8 µg/mL (≈ 19.6 µM), an MIC [29] of 0.5 µg/mL (≈ 1.22 µM) and an MIC [30] of 1 µg/mL (≈ 2.45 µM). The MIC [31] was 0.12 µg/mL (≈ 0.294 µM), the MIC [32] was 0.06 µg/mL (≈ 0.147 µM) and the MIC ([33]; 18 hours) was 0.25 µg/mL (≈ 0.612 µM). For the same compound, the MIC [34] was 0.5 µg/mL (≈ 1.22 µM), the MIC [35] was 0.5 µg/mL (≈ 1.22 µM) and the MIC [36] was greater than 16 µg/mL. It also gave an MIC [37] of 1 µg/mL (≈ 2.45 µM).
With CCn1cc(C(=O)O)c(=O)c2cc(F)c(N3CCNC(c4ccncc4)C3)c(F)c21 (stereo not drawn) [Example 127] the MIC [1] was 2 µg/mL (≈ 4.83 µM), the MIC [2] was 16 µg/mL (≈ 38.6 µM) and the MIC [3] was 0.5 µg/mL (≈ 1.21 µM). For the same compound, the MIC ([4]; Morganella morganii, CMC8437, 18 h, read-out: MIC) was 0.5 µg/mL (≈ 1.21 µM), the MIC [5] was 4 µg/mL (≈ 9.65 µM) and the MIC ([6]; Staphylococcus aureus, VGH8447, 18 h, read-out: MIC) was 0.25 µg/mL (≈ 0.603 µM). For the same compound, the MIC [7] was 0.12 µg/mL (≈ 0.29 µM), the MIC [8] was 1 µg/mL (≈ 2.41 µM) and the MIC [9] was 2 µg/mL (≈ 4.83 µM). It also gave an MIC [10] of 4 µg/mL (≈ 9.65 µM), an MIC [11] greater than 16 µg/mL and an MIC [12] of 4 µg/mL (≈ 9.65 µM). For the same compound, the MIC (Escherichia coli LL 311) was 0.5 µg/mL (≈ 1.21 µM), the MIC [13] was 32 µg/mL (≈ 77.2 µM) and the MIC [14] was 16 µg/mL (≈ 38.6 µM). It also gave an MIC [15] of 0.5 µg/mL (≈ 1.21 µM), an MIC (Citrobacter div. K 82-24) of 2 µg/mL (≈ 4.83 µM) and an MIC [16] greater than 16 µg/mL. For the same compound, the MIC [17] was 8 µg/mL (≈ 19.3 µM), the MIC ([18]; Escherichia coli, VGH8419, 18 h, read-out: MIC) was 1 µg/mL (≈ 2.41 µM) and the MIC [19] was 4 µg/mL (≈ 9.65 µM). It also gave an MIC [20] of 4 µg/mL (≈ 9.65 µM), an MIC [21] of 4 µg/mL (≈ 9.65 µM) and an MIC [23] of 4 µg/mL (≈ 9.65 µM). For the same compound, the MIC [24] was 1 µg/mL (≈ 2.41 µM), the MIC [25] was 8 µg/mL (≈ 19.3 µM) and the MIC [26] was greater than 16 µg/mL. For the same compound, the MIC [27] was greater than 16 µg/mL, the MIC [28] was 8 µg/mL (≈ 19.3 µM) and the MIC [29] was 2 µg/mL (≈ 4.83 µM). For the same compound, the MIC [30] was 4 µg/mL (≈ 9.65 µM), the MIC [31] was 2 µg/mL (≈ 4.83 µM) and the MIC [32] was 0.06 µg/mL (≈ 0.145 µM). For the same compound, the MIC ([33]; Escherichia coli, MOR8420, 18 h, read-out: MIC) was 1 µg/mL (≈ 2.41 µM), the MIC [34] was 2 µg/mL (≈ 4.83 µM) and the MIC [35] was 2 µg/mL (≈ 4.83 µM). For the same compound, the MIC [36] was greater than 16 µg/mL and the MIC [37] was 2 µg/mL (≈ 4.83 µM).

Source: US5210193A, “Piperazine derivatives” (American Cyanamid Company, priority 1990, dated 1993)
